In patent US20080213404A1, “Hif Modulating Compounds and Methods of Use Thereof” (priority 2005, published 2008):
Counter-ions that a name gives are not always drawn. Like-named read-outs stand apart in the source and are kept apart here.

Tests used:
HIF-1α = assay: Western blot of HIF-1α in macrophages exposed to GAS; type: cell-based, mouse; settings: WT macrophages, normalized to β-actin
Method: (§1) FIG. 6 provides graphs showing HIF-1 and vHL regulate NO production. (A) Total RNA from WT, HIF-1−/−, and vHL−/− bone marrow-derived macrophages infected with GAS isolated 3 hours after antibiotic treatment. iNOS mRNA was quantified by RT-PCR. WT, nonstimulated macrophages were arbitrarily set to 1 unit following normalization to ribosomal RNA levels. (B) NO production under GAS stimulation ±1.5 mM AG ([…]; Calbiochem). BM-derived macrophages were cultured for 20 hours, conditioned supernatant collected, and NO […] levels measured by the Griess assay. (C) Mim enhances iNOS expression of WT macrophages stimulated by GAS. Total RNA from WT and HIF-1-null BM-derived macrophages infected with GAS±Mim isolated 3 hours after antibiotic treatment. iNOS mRNA was quantified by RT-PCR. WT, noninfected macrophages were arbitrarily set to 1 unit following normalization to ribosomal RNA levels. Statistical analyses performed by unpaired Student's t test. **P<0.01; ***P<0.001. […]
Peritoneal neutrophils or bone marrow-derived macrophages inoculated with GAS were harvested and washed with PBS, and proteins were extracted with HTAB or RIPA buffers. Protein concentration was calculated using the Bio-Rad assay (Bio-Rad Laboratories). […] Immunoreactive proteins were detected using the ECL chemiluminescent system (Amersham Biosciences).

[1] = system: intracellular killing of GAS by macrophages; assay: Bacterial killing assay (antibiotic protection): intracellular killing of GAS by macrophages; type: cell-based, mouse; settings: for intracellular killing of GAS by WT macrophages: preincubation 5 hours, L-Mim 800 μM, OH-pyridone 150 μM, desferrioxamine mesylate 100 μM, CoCl2 100 μM
Method: FIG. 2 is a series of graphs showing HIF-1 regulates bactericidal activity of myeloid cells. (A) Intracellular killing of GAS by WT, HIF-1-null, or vHL-null macrophages. BM-derived macrophages were inoculated with GAS at an MOI equal to 2.5 and cultured under normoxic (white bars) or hypoxic (0.1%; black bars) conditions for 1 hour after antibiotic treatment. Statistical analyses were performed using unpaired Student's t test. *P<0.05; **P<0.01. (B) Loss of HIF-1 in macrophages decreases intracellular killing of GAS and of P. aeruginosa. WT (black bars) or HIF-1-null (white bars) BM-derived macrophages were incubated with bacteria for 1 hour before antibiotics were added. Intracellular killing was analyzed by determination of viable CFUs in macrophage lysates at the specified time points after bacterial uptake. Experiments were performed in triplicate. […] Experiment shown is representative of 3 repeated studies. (C) Loss of vHL in BM-derived macrophages increases intracellular killing of GAS and of P. aeruginosa. Experiments were performed in triplicate and are representative of 3 repeated studies. […] (D) Pharmacologic agonists of HIF-1 increase myeloid cell bactericidal activity. Preincubation (5 hours) with desferrioxamine mesylate (DFO), CoCl2, OH-pyridone, or Mim increased the intracellular killing capacity of WT macrophages against GAS. ***P<0.001.
To assess the functional consequences of HIF-1α activation, we used an antibiotic protection assay to calculate intracellular killing of GAS by WT macrophages compared with killing by those derived from the bone marrow of HIF-1α-lysMcre mice (11). Here, targeted deletion of the HIF-1α gene has been created via crosses into a background of cre expression driven by the lysozyme M promoter (lysMcre), allowing specific deletion of the transcription factor in the myeloid lineage (11). […] Macrophage killing of the Gram-negative bacterium P. aeruginosa was likewise impaired upon deletion of HIF-1α (FIG. 2B).
Finally, we treated WT macrophages with a number of known pharmacologic inducers of HIF-1α that each act directly or indirectly to inhibit prolyl hydroxylase targeting of HIF-1α for ubiquitination. These included the iron chelator desferrioxamine, CoCl2, L-Mim, and 3-hydroxy-1,2-dimethyl-4(1H)-pyridone (OH-pyridone) (13). The addition of each of these agents increased intracellular killing of GAS by WT macrophages (FIG. 2D).
Bacterial killing assays. GAS were grown to logarithmic phase in THB to OD600=1×10^8 cfu/ml. Bacteria were added to macrophages at an MOI of 2.5 bacteria/cell and intracellular killing assessed using an antibiotic protection assay (11, 53) or, alternatively, total cell-associated bacteria measured by vigorous washing with PBS×3 to remove nonadherent bacteria. At the end of the assay, total cell lysate was plated on THB agar for enumeration of CFU. […] To assess macrophage viability, the monolayers were washed with PBS and incubated with 0.04% Trypan blue for 10 minutes at 37° C. As specified in the FIG. 2 legend and in Results, macrophages were preincubated with L-Mim (800 μM), OH-pyridone (150 μM), desferrioxamine mesylate (100 μM), or CoCl2 (100 μM) for 5 hours prior to the killing assay; each drug level was known to be sufficient for HIF-1 induction (13). Absence of bacterial inhibition was tested by incubating the drugs at the above concentrations with GAS (˜105) at 37° C. for 1-24 hours. Mouse model of GAS infection.

NO production = assay: Nitrite determination (Griess assay) in macrophage supernatants under GAS stimulation; type: cell-based, mouse; settings: 1.5 mM AG; macrophages cultured 20 hours
Method: as §1
The concentration of nitrite (NO2-), the stable oxidized derivative of NO, was determined in 100-μl aliquots of cell culture supernatants transferred to 96-well plates. Essentially, 100 μl of Griess reagent (1% sulfanilamide, 0.1% naphthylene diamine dihydrochloride, 2% H3PO4) was added per well, and the absorbances were measured at 540 nm in a microplate reader. […]

TNF-α = TNF-α ELISA of conditioned macrophage supernatants after GAS; type: cell-based, mouse; settings: WT, HIF-1α and vHL-deficient macrophages, 1 hour after antibiotic treatment
Method: FIG. 7 is a series of graphs illustrating HIF-1 and vHL regulate TNF-production. (A) Total RNA from WT, HIF-1−/−, and vHL−/− bone marrow-derived macrophages infected with GAS were isolated 3 hours after antibiotic treatment. TNF-mRNA was quantified by RT-PCR. WT, nonstimulated macrophages were arbitrarily set to 1 unit following normalization to ribosomal RNA levels. (B) inhibition of iNOS decreases TNF-production. BM-derived macrophages were cultured for 1 hour after antibiotic treatment. Conditioned supernatant was harvested and TNF-protein analyzed by ELISA (eBiosciences). Statistical analyses were performed using unpaired Student's t test. ***P<0.001.
We next examined the expression pattern of TNF-α, a cytokine involved in the augmentation of inflammatory responses to microbial infection. Indeed, development of GAS-necrotizing fasciitis has been reported as a complication of anti-TNF-α therapy (37). […] Whereas basal levels of TNF-α protein expression were similar in WT, HIF-1α, and vHL-null macrophages, loss of HIF-1α also strongly depressed the rapid secretion of TNF-α protein in response to GAS (FIG. 7B).

[2] = system: HIF-1α-dependant transcription (HRE-luciferase reporter); assay: HRE-luciferase reporter assay in BM-derived macrophages of HRE-luciferase transgenic mice; type: cell-based, mouse; settings: 18 hours; L-Mim 800 μM, desferrioxamine mesylate 150 μM, CoCl2 150 μM
Method: (C) HRE-luciferase BM-derived macrophages were incubated either with GAS or heat-inactivated GAS at an MOI equal to 5-10 under hypoxia (1%) or with the addition of mimosine (800 μM), desferrioxamine mesylate (150 μM), or CoCl2 (150 μM) for 18 hours.
We measured HIF-1α-dependant transcription in macrophages derived from HRE-luciferase transgenic mice, which contain a luciferase reporter gene driven by 6 consecutive specific HRE sequences.
Macrophages were derived from the marrow of femurs and tibiae of transgenic HRE-luciferase mice as described above. The luciferase reporter gene in these mice is driven by 6 specific HRE sequences. Cells were incubated with GAS or heat-inactivated GAS for 18 hours. […] Cells were then washed out with PBS, and luciferase assay was performed by using the Bright-Glo Luciferase Assay kit (Promega Corp.). Luciferase activities were measured using a luminometer.

Staphylococcus aureus [3] = assay: Bactericidal capacity of cultured human monocytic cells against S. aureus; type: cell-based
iNOS = iNOS mRNA by RT-PCR in BM-derived macrophages infected with GAS; type: cell-based, mouse; settings: for expression of iNOS mRNA: WT macrophages infected with GAS, RNA isolated 3 hours after antibiotic treatment
Method: (A) Total RNA from WT, HIF-1−/−, and vHL−/− bone marrow-derived macrophages infected with GAS isolated 3 hours after antibiotic treatment. iNOS mRNA was quantified by RT-PCR. WT, nonstimulated macrophages were arbitrarily set to 1 unit following normalization to ribosomal RNA levels. […] Total RNA from WT and HIF-1-null BM-derived macrophages infected with GAS±Mim isolated 3 hours after antibiotic treatment. iNOS mRNA was quantified by RT-PCR. WT, noninfected macrophages were arbitrarily set to 1 unit following normalization to ribosomal RNA levels. Statistical analyses performed by unpaired Student's t test. **P<0.01; ***P<0.001.
First-strand synthesis was obtained from 1 μg of total RNA isolated with Trizol reagent (Molecular Research Center Inc.) by the SuperScript system (Invitrogen Corp.), employing random primers.

Staphylococcus aureus [4] = assay: Bactericidal capacity of freshly isolated human blood; type: cell-based
[5] = system: vincomycin-resistant Enterococcus species; settings: freshly isolated human neutrophils
[6] = system: vincomycin-resistant Enterococcus species; settings: cultured human monocytic cells
Staphylococcus aureus [7] = assay: Bactericidal capacity of freshly isolated human neutrophils against S. aureus; type: cell-based

Cc1ccc(S(=O)(=O)O)cc1.NNC(N)=NO [AG, 1-amino-2-hydroxyguanidine, p-toluenesulfate]
GAS-induced increase of HIF-1α levels (HIF-1α): blocked | bactericidal activity of HIF-1α-null macrophages ([1]; HIF-1α-null macrophages, presence of iNOS inhibitor): did not further suppress | bactericidal activity of WT macrophages ([1]; WT macrophages, presence of iNOS inhibitor): inhibited | production of NO in response to GAS (NO production): significantly inhibited | TNF-α protein in conditioned supernatants (TNF-α): reduced amounts

[Cl][Co][Cl] [CoCl2, cobalt chloride]
increase in luciferase reporter activity [2]: 3 fold | intracellular killing of GAS by WT macrophages [1]: increased

N[C@@H](Cn1ccc(=O)c(O)c1)C(=O)O [L-Mim, 3-Hydroxy-4-oxo-1(4H)-pyridinealanine]
bactericidal capacity against Staphylococcus aureus (Staphylococcus aureus [3]): increase | increased expression of iNOS mRNA (iNOS; HIF-1α-null macrophages infected with GAS): very low | expression of iNOS mRNA (iNOS): greatly increased | expression of iNOS mRNA (iNOS; listed as Mim): enhances | bactericidal capacity against Staphylococcus aureus (Staphylococcus aureus [4]): increase | intracellular killing of GAS by WT macrophages [1]: increased | bactericidal capacity against vincomycin-resistant Enterococcus species [5]: increase | bactericidal capacity against vincomycin-resistant Enterococcus species [6]: increase | bactericidal capacity against Staphylococcus aureus (Staphylococcus aureus [7]): increase

Cc1c(O)c(=O)ccn1C [OH-pyridone, 3-hydroxy-1,2-dimethyl-4(1H)-pyridone]
intracellular killing of GAS by WT macrophages [1]: increased

CC(=O)N(O)CCCCCNC(=O)CCC(=O)N(O)CCCCCNC(=O)CCC(=O)N(O)CCCCCN [desferrioxamine mesylate]
increase in luciferase reporter activity [2]: 3 fold | intracellular killing of GAS by WT macrophages [1]: increased
